Laboratory results: US20100112012A1, “MODULATION OF IMMUNE RESPONSES” (CLEVELAND CLINIC FOUNDATION, priority 2005, published 2010)
“Also recorded” adds a separate entry of the source.

Assays:
p53 [1] = assay: Screening for p53-activating compounds, p53-responsive reporter in RCC45ConALacZ cells; format: cell-based, human
Procedure: Transient transfections. 2×10^5 cells were plated into 6-well plates and, after overnight incubation, transfected with Lipofectamin Plus reagent (Gibco BRL) with 0.5 μg of reporter plasmids (p21-ConALuc or pNF-κBLuc) in combination with different concentrations of plasmids expressing p53, Arf, Ss-IκB, or siHDM2. Corresponding empty vectors were added in all transfections up to 2 μg of total DNA. Normalization of transfection efficiency was done by adding 0.2 μg of pCMV-LacZ plasmid. Luciferase activity and β-galactosidase activity were measured in lysates prepared 48 hours after transfection with Cell Lysis Buffer (Promega) by the luciferase assay system (Promega) or β-galactosidase enzyme system (Promega). Luminometric and colorimetric reactions were read on the Wallack 1420 plate reader (Perkin Elmer). Stable transduction of reporters. 2×10^4 cells with integrated reporter were plated in 96-well plates. After overnight incubation, chemicals or media from lentivirus-producing cells were added. At different times, cell lysates were prepared using Reporter Lysis Buffer (Promega). Luciferase or β-galactosidase activity and protein concentration were measured in aliquots of cell lysates using standard kits (Promega, Luciferase and β-galactosidase assay systems, Biorad Protein Assay Kit).
The DiverSet library of 34,000 chemical compounds and focused libraries of structural analogues of selected hits were provided by Chembridge, Calif. Cell lines with p53- or NF-κB-responsive luciferase or β-galactosidase reporters were described previously (5, 7). For screening chemicals, 2×10^4 RCC45ConALacZ cells (RCC45-based p53 reporter cells) were plated per well of 96-well plates in 200 μL of phenol-red-free RPMI medium with standard additions. After overnight incubation, the compounds were added to final concentrations of 5-15 μM (0.2 μL of compound in DMSO per well). […] After 24 h, lysis buffer with ortho-nitrophenyl-β-D-galactopyranoside (ONPG) was added and β-galactosidase activity was estimated colorimetrically by a multiwell plate reader.

p53 [2] = assay: Phosphorylation status of p53 (Western analysis); format: cell-based, human; conditions: RCC45 cells, 9AA 5 μM, 16 h
Procedure: (§1) Cells were lysed in RIPA buffer (25 mM Tris HCl, pH 7.2, 125 mM NaCl, 1% NP40, 1% sodium deoxycholate, 1 mM EDTA) containing 1 mM PMSF (Sigma), 10 ug/ml of aprotinin (Sigma) and 10 ug/ml of leupeptin (Sigma). Protein concentrations were determined with the BioRad Dc protein assay kit. Equal protein amounts were run on gradient 4-20% precast gels (Novex) and blotted onto PVDF membranes (Amersham). The following antibodies were used: anti-p53—monoclonal mouse DO1 (Santa-Cruz), anti-p21—monoclonal mouse F-5 (Santa-Cruz), anti-mdm2—monoclonal mouse SMP14 (Santa-Cruz), anti-p65—(C20, Santa Cruz), anti-phospho-p65—(ser536, Cell Signaling), anti-IκBa—(C21, Santa Cruz), anti-p50—(NLS, Santa Cruz), anti-IKK1 (Cell Signaling), anti-γH2X (Cell Signaling), anti-actin (Santa Cruz). p53 phosphorylation status was analyzed using the phospho-p53 sampler kit from Cell Signaling according to the manufacturer's recommendations. HRP-conjugated secondary antibodies were purchased from Santa Cruz. Quantitation of the data was performed using Quantity One software from BioRad.

IκBα = IκBα level (Western analysis); format: cell-based, human; conditions: TNF 10 ng/ml, 9AA 10 μM
Procedure: as §1

[3] = system: androgen receptor, N-Myc, CLOCK/Bmal and Smad; assay: Reporter activity of other transcriptional activators; format: cell-based; conditions: data not shown
ACHN cells = assay: Experimental chemotherapy of tumor xenografts; format: in vivo, nude mice; conditions: 5-fluorouracil 35 mg/kg
Procedure: NIH Swiss athymic nude, male mice, 5-6 weeks old, were purchased from Harlan. 5×10^6 tumor cells were inoculated into the flanks of mice in 100 μL of PBS. When tumors reached 5 mm in diameter, intraperitoneal injections of drugs were started in 100 μL of a solution of 50% DMSO in PBS (except for quinacrine, which was dissolved in PBS). As vehicle, 50% DMSO solution in PBS was used. Tumor size was measured in three dimensions every other day.

[4] = system: proinflammatory cytokines in the skin; assay: IL-1β, TNFα, CCL21 and IκBα expression in sensitized skin (RT-PCR, ELISA); format: in vivo, BALB/c mice; conditions: quinacrine on days −2 plus −1, 0.25% DNFB
Procedure: Naive and sensitized mouse skin (˜200 mg) was snap frozen in liquid nitrogen and then ground using a mortar and pestle in liquid nitrogen. Total RNA was extracted using the RNeasy Tissue Kit (Qiagen, Inc., Valencia, Calif.) according to the manufacturer's protocol. For synthesis of cDNA, 2 mg of total RNA from each sample was resuspended in 10 ml of the reaction buffer. cDNA synthesis was performed using M-MLV reverse transcriptase (Promega Corporation, Madison, Wis.) with random primers according to the manufacturer's protocol. The reaction was stopped by denaturing the enzyme at 99° C. for 5 min. and the mixture was diluted with distilled water to a final volume of 50 ml. Aliquots (3 ml) of the synthesized cDNA were added to 47 ml of PCR mixture, containing 1×PCR buffer, MgCl2 (1.5 mM), dNTP (0.2 mM each), primer mix (0.5 mM each) and 2.0 units of Taq DNA polymerase (all from Invitrogen Corp., Carlsbad, Calif.). PCR primers for mouse GAPDH, IκBα, TNF-α, IL-1β and CCL21 were purchased from Integrated DNA Technologies, Inc. (Coralville, Iowa) and contained the following sequences:
Amplification was initiated by 1 min of denaturation at 95° C. for 1 cycle. […] For each set of primers, dilutions of cDNA were amplified for 20-40 cycles to define optimal conditions for linearity and to permit semi-quantitative analysis of signal strength. […]

SMILES: CCN(CC)CCCC(C)Nc1c2ccc(Cl)cc2nc2ccc(OC)cc12 (stereo not shown) [QC, quinacrine]
- activation of the p53-dependent reporter (p53 transactivation) in RCC (p53 [1]): effective inducer of p53 transactivation in RCC
- phosphorylation of p53 (p53 [2]): did not induce the phosphorylation of p53
- TNF-stimulated induction of IκBα (IκBα): blocked
- activity of other transcriptional activators (androgen receptor, N-Myc, CLOCK/Bmal and Smad) [3]: did not change the activity
- growth of tumor xenografts (ACHN cells; ACHN cells subcutaneous in nude mice, QC 50 mg/kg intraperitoneal): inhibited the growth of tumor xenografts; also recorded: same antitumor effect as 5-fluorouracil
- weight loss (ACHN cells; ACHN xenograft nude mice, QC 50 mg/kg): without the significant weight loss
- antigen-induced mRNA expression and protein production of proinflammatory cytokines in the skin [4]: decreases antigen-induced mRNA expression and protein production of proinflammatory cytokines in the skin
